The source of these data is PubChem BioAssay AID179 (DTP/NCI, 2004).

Structures are written as SMILES. The source made the active and inactive calls.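 The calls were made as follows: active = compounds giving half or more protection of infected cells from virus-caused growth loss, again on retest; inactive = the rest.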 Some results are limits rather than exact numbers.

In this assay the test system is CEM cells HIV-1 protection, formazan growth assay. Briefly: NCI AIDS Antiviral Assay. The settings on record: for IC50: measured here: growth of uninfected CEM cells. In outline:
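Steps: treat uninfected and HIV-1-infected human CEM cells at five drug levels; quantify growth by soluble formazan; retest any compound reaching 50% protection; classify actives from the retest.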

`CC(=O)N1OC(C)CC1Nc1ccc(Br)cc1` (centres undefined) returned an EC50 of more than 200 µM and an IC50 of 25.1 µM.

`CC(=O)OCC(OC(C)=O)C(OC(C)=O)C1OC(Oc2ccccc2)C(OC(C)=O)C1OC(C)=O` (centres undefined): the EC50 was more than 200 µM and the IC50 was more than 200 µM.

Turning to `COc1cc(Nc2ccc3c(c2)CCC3)nc(OC)n1`, the EC50 is more than 200 µM and the IC50 stood at 31.6 µM.

As to `CSc1nc2c(c(=O)[nH]1)N=C(c1ccccc1)CC(c1ccccc1)N2` (centres undefined), the outcome was inactive.

`CCCCOP(=O)(/N=C/OC(C)C)OCCCC`: the EC50 is more than 200 µM and the concentration for half-maximal inhibition (IC50) was more than 200 µM.

Consider `N#C/C(=C\c1ccccc1)c1nc(-c2cc3ccccc3oc2=O)cs1`, for which the EC50 is more than 151 µM and the IC50 is more than 151 µM.

With `Cc1cn(C2CC(N=[N+]=[N-])C(COC(=O)CCCCCCCCCCCI)O2)c(=O)[nH]c1=O` (centres undefined), the concentration giving a half-maximal response (EC50) is 0.049 µM and the IC50 is 102 µM.

Turning to `CCOC(=O)/C(=C\c1ccc[nH]1)C(=O)c1ccccc1`, the EC50 was more than 95.5 µM and the IC50 was more than 95.5 µM.

For `COc1ccc(C[C@H]2COC(=O)[C@@H]2Cc2cc(OC)c(OC)c(OC)c2)cc1OC`, the EC50 is more than 200 µM and the IC50 was 115 µM.

For the compound `COC(=O)c1cc(=O)nc(NN)s1`, the EC50 was more than 50.1 µM and the IC50 was more than 50.1 µM.

As for `S=c1[nH]c2ccccc2s1.[Zn+2]`, the EC50 was more than 26.3 µM and the IC50 was more than 26.3 µM.

For the compound `Cn1cc(NC(=O)Nc2cc(C(=O)Nc3cc(C(=O)Nc4cc(C(=O)Nc5cc(P(=O)(O)O)c6cccc(P(=O)(O)O)c6c5)n(C)c4)n(C)c3)n(C)c2)cc1C(=O)Nc1cc(C(=O)Nc2cc(C(=O)Nc3cc(P(=O)(O)O)c4cccc(P(=O)(O)O)c4c3)n(C)c2)n(C)c1`, the EC50 was 0.288 µM and the half-inhibitory concentration (IC50) was 75.9 µM.

For the compound `Cc1ccc(CCCCCOc2ccc(C3=NCCO3)cc2)s1`, the outcome was inactive.

Turning to `CSC1=C(C(=O)Nc2ccc(C)cc2)C(N)=NC1=O`, the EC50 is more than 100 µM and the IC50 is more than 100 µM.

Turning to `O=C(O)/C(Cl)=C(\Cl)Nc1cccc(C(F)(F)F)c1`, the result was inactive.

For `O=c1[nH]nc(-c2ccc3ccccc3c2)[nH]1`, the EC50 was 135 µM and the IC50 is more than 200 µM.

On to `CCN(CC)c1ccc2cc(-c3csc(-c4ccc(N(C)C)cc4)n3)c(=O)oc2c1`, for which the EC50 was more than 100 µM and the half-inhibitory concentration (IC50) was determined as 10 µM.

Turning to `CCCCC#C[I+]c1ccccc1`, the result was inactive.

Consider `CC1OC(OC2C(O[C@H]3CC[C@@]4(C)C(=CC[C@H]5[C@@H]6C[C@@H]7O[C@]8(CC[C@@H](C)CO8)[C@@H](C)[C@@H]7[C@@]6(C)CC[C@@H]54)C3)OC(CO)C(O)C2OC2OC(CO)C(O)C(O)C2O)C(O)C(O)C1O` (some centres undefined), for which the EC50 was more than 200 µM and the half-maximal inhibitory concentration (IC50) stood at 1.17 µM.

Consider `CCOC(=O)C(=CNC(=S)c1cccnc1)C(=O)OCC`, for which the EC50 was more than 200 µM and the IC50 came to 17.8 µM.

For the compound `O=c1ccn(C2OC(CN(O)CCC3C(CO)OC(n4ccc(=O)[nH]c4=O)C3O)C(O)C2O)c(=O)[nH]1` (centres undefined), the EC50 is more than 200 µM and the IC50 was 126 µM.

As to `CCN(C(=O)N[C@H](C(=O)N[C@@H](CSC)C(=O)N[C@@H](C)C(=O)OC)C(C)C)c1ccccc1`, the result was inactive.

On to `CCNCC(O)COc1ccc2c(c1)[n+]([O-])nc(N)[n+]2[O-]` (centres undefined), for which the EC50 was more than 200 µM and the IC50 turned out to be 13.8 µM.

On to `O=C(O)c1ccc(CI)cc1`, for which the EC50 was more than 200 µM and the IC50 amounted to 24.5 µM.

Take `Cc1cc2c(c(C(=O)NCCC(=O)N[C@@H](C)C(=O)OCc3ccccc3)c1)Oc1c(cc(C)cc1C(=O)NCCC(=O)N[C@@H](C)C(=O)OCc1ccccc1)S2`: the EC50 is more than 200 µM and the IC50 was more than 200 µM.

In the case of `CC(C)[Si](OCC/C=C/C1CCC(=O)C1C(O)C1CCCCC1)(C(C)C)C(C)C` (centres undefined), the result was inactive.

For the compound `Nc1ccc(/C=C/c2cccc3cccnc23)cc1`, the EC50 is 0.0631 µM and the IC50 is more than 200 µM.

Take `COc1cc(OC)c2c(c1)C(=O)c1cccc(O)c1C2=O`: the result was inactive.

`C/C(N=NC(=S)N1CCCCCC1)=C1\C=CC=CN1O`: the EC50 is more than 123 µM and the IC50 amounted to 2.14 µM.

`CC(C)=CCCc1c(C)ccc2c1C(=O)C(=O)C(C(C)C)=C2`: the EC50 was more than 60.3 µM and the IC50 is 4.47 µM.

Regarding `CCC1CCc2c(c(=O)oc3c2cc(OC)c2cccc(OC)c23)C1` (centres undefined), the EC50 was more than 110 µM and the IC50 is 87.1 µM.

Take `O=C1c2ccccc2C(=O)N1N1CC1Br` (centres undefined): the EC50 was more than 200 µM and the IC50 was more than 200 µM.

Regarding `CC(=O)O[C@H]1CC[C@H]2[C@@H]3CCC4=C(C(=O)C=CC4(C)OC(C)=O)[C@H]3CC[C@]12C` (some centres undefined), the EC50 was more than 200 µM and the IC50 turned out to be 13.8 µM.

In the case of `COc1ccc([P+](Cc2ccccc2)(c2ccccc2)c2ccc3ccccc3c2)cc1` (centres undefined), the EC50 is more than 200 µM and the IC50 is 0.794 µM.

As for `O=C(O)CN(c1ccccc1)S(=O)(=O)c1ccc([N+](=O)[O-])cc1`, the outcome was inactive.

Consider `O=C1/C(=N\O)c2ccccc2S1(=O)=O`, for which the outcome was inactive.

Regarding `Cc1cn([C@H]2C[C@H](N=[N+]=[N-])[C@@H](COC(=O)CCC(=O)OC3CN(Cc4ccccc4)C(=O)N(Cc4ccccc4)C3)O2)c(=O)[nH]c1=O`, the EC50 is 0.955 µM and the IC50 was determined as 89.1 µM.

In the case of `Nc1nc(CCC(=O)Nc2cccc(C(F)(F)F)c2)cc(-c2ccc3ccccc3c2)n1`, the EC50 was more than 575 µM and the IC50 was more than 575 µM.

For `O=C(NNC(=S)Nc1ccccc1)c1csc(NC(=S)NC2CCCCC2)n1`, the EC50 is 6.92 µM and the IC50 came out at 7.41 µM.

Regarding `O=C1C(/C=C/c2ccc(Cl)cc2)=NNC2N1N=C1NC(=O)C3(NN12)c1ccccc1-c1ccccc13` (centres undefined), the EC50 was more than 200 µM and the IC50 amounted to 132 µM.

For the compound `CC1CN(Cc2ccccc2)C(=N)S1` (centres undefined), the EC50 was more than 363 µM and the IC50 worked out at 288 µM.

Consider `CSCCC(NC(=O)OCc1ccccc1)NC(=O)OCc1ccccc1`, for which the EC50 was more than 200 µM and the IC50 was more than 200 µM.

Turning to `CC1CN=C(Cc2ccc(NC(=O)c3ccc(C(=O)Nc4ccc(CC5=NCC(C)N5)cc4)cc3)cc2)N1` (centres undefined), the EC50 is more than 200 µM and the IC50 turned out to be 110 µM.

On to `COc1cc(C(C#N)NNC(=O)Cc2ccccc2)cc(OC)c1OC` (centres undefined), for which the EC50 was more than 191 µM and the IC50 is 93.3 µM.

As for `COc1ccc(N2CCOCC2)cc1`, the outcome was inactive.

For the compound `O=C(O)CCC1COc2ccccc2O1` (centres undefined), the EC50 was more than 200 µM and the IC50 was more than 200 µM.

As to `CCN(CC)C(=S)S`, the EC50 was more than 1450 µM and the IC50 was 39.8 µM.

Turning to `COc1ccc2c(c1)OC[C@@H]1c3cc(NS(=O)(=O)c4ccccc4)cc(OCc4ccccc4)c3O[C@H]21`, the EC50 was 10.2 µM and the IC50 came to 13.5 µM.

In the case of `C=C1CN(S(=O)(=O)c2ccc(C)cc2)CCCN(C(=O)OC(C)C)CCCN(S(=O)(=O)c2ccc(C)cc2)C1`, the EC50 is more than 200 µM and the IC50 was determined as 14.1 µM.

As to `CC1=C[C@H]2O[C@@H]3C[C@H]4OC(=O)/C=C\C=C\[C@H]([C@@H](C)O)OC[C@H](O)[C@@]5(C)O[C@@H]5C(=O)OC[C@@]2(C[C@H]1O)[C@]4(C)C31CO1` (some centres undefined), the EC50 is more than 4.47 µM and the 50% inhibitory concentration (IC50) was determined as 0.00575 µM.

On to `COc1ccc(/C(C)=N\NS(=O)(=O)c2ccc(NC(C)=O)cc2)cc1`, for which the EC50 was more than 182 µM and the IC50 is more than 182 µM.

With `CCSC(=O)N1c2ccc(OC)cc2C=CC1C#N` (centres undefined), the EC50 was more than 0.692 µM and the IC50 stood at 0.0407 µM.

On to `CCCN1CCC=C([Si](C)(C)C)C1`, for which the outcome was inactive.

As for `CCC(c1ccc(OC)cc1)C1NC(=S)NC1=O` (centres undefined), the EC50 was more than 200 µM and the half-maximal inhibitory concentration (IC50) stood at 31.6 µM.

Take `CCOP(=O)(OCC)/C(=C/n1c(=S)[nH]c2ccccc21)C(=O)OC`: the EC50 is more than 200 µM and the IC50 is more than 200 µM.

`O=C1OCc2cccc3c2-c2c1cccc2C(=O)OC3`: the outcome was inactive.

For the compound `c1ccc(-c2ccccc2SSc2ccccc2-c2ccccc2)cc1`, the EC50 was more than 200 µM and the IC50 amounted to 5.37 µM.

Consider `CC1(C)S[C@H](c2ccccc2C(=O)O)N[C@@H]1CC(=O)O`, for which the outcome was inactive.

As to `COc1ccc(N2C(=O)C3c4[nH]c5ccc(C)cc5c4C4CCC(C)CC4C3C2=O)cc1` (centres undefined), the EC50 was more than 100 µM and the IC50 is more than 100 µM.

Regarding `O=C1OCCOC(=O)c2cccc(n2)C(=O)OCCOC(=O)c2cccc1n2`, the EC50 is 22.9 µM and the IC50 turned out to be 25.7 µM.

For the compound `CCC1CC2C(=O)N(c3ccccc3)C(=O)C2c2[nH]c3ccccc3c21` (centres undefined), the outcome was inactive.

With `O=C(/C=C/c1ccccc1O)c1cccc2ccccc12`, the EC50 was 93.3 µM and the IC50 was 95.5 µM.

In the case of `N=C(N)CCNC(=O)c1c[nH]c2nc(N)[nH]c(=O)c12`, the EC50 is more than 347 µM and the IC50 is more than 347 µM.

On to `c1ccc2c(c1)oc1ccc3nsnc3c12`, for which the EC50 is more than 15.8 µM and the IC50 was more than 15.8 µM.

As to `O=S(=O)(O)C(O)C(F)(F)C(F)(F)C(F)(F)F` (centres undefined), the EC50 is more than 200 µM and the IC50 is more than 200 µM.

For `CC(=O)OC1(C#N)CC2OC1C1C2N1C(=O)OC(C)(C)C` (centres undefined), the EC50 is more than 427 µM and the IC50 is more than 427 µM.

For `O=C(/C=C(\O)C(=O)O)/C=C(\O)c1ccc(Cl)cc1`, the EC50 was more than 69.2 µM and the IC50 is more than 69.2 µM.

Turning to `N[C@@H](Cc1ccc(O)c(O)c1)C(=O)O`, the EC50 was more than 200 µM and the concentration for half-maximal inhibition (IC50) amounted to 51.3 µM.

Regarding `C=CC1(C)CCC2C(C)(C)C(Br)CC[C@]2(C)O1` (some centres undefined), the result was inactive.

For `CC(C)(/C=N\O)NO`, the EC50 is more than 200 µM and the IC50 is more than 200 µM.

Take `O=C(O)C1CC(C2CCCCN2)CN2CCCCC12` (centres undefined): the EC50 was more than 200 µM and the IC50 was more than 200 µM.

For `COC[C@@H](N=Cc1ccc([N+](=O)[O-])cc1)C(C)C`, the EC50 was more than 200 µM and the IC50 was 67.6 µM.
